# Earlier results, collected in patent US20110105442A2, “MEANS AND METHODS FOR CONTROLLING COMMENSALES” (Biotechnology Research And Information Network, AG …, priority 2008, published 2011).
# Where two headings read alike, the source gives them in different places.
# System: certain Gram-positive and Gram-negative bacteria including commensales of the skin
# Settings: Malmstrøm et al., 2002, biofilm not assayed
smiles,measurement,setting,value
"C/C=C/C1=CC(=O)[C@H](O)[C@H]1O (stereo in doubt) [Terrein, 4,5-Dihydroxy-3-(1-propenyl)-2-cyclopenten-1-one]",antibacterial activity,,weak antibacterial activity
same,antibacterial activity,listed as terrein,weak to negligible activity
